Data: ChEMBL document CHEMBL2177100, “Structural optimization and structure-activity relationships of N2-(4-(4-Methylpiperazin-1-yl)phenyl)-N8-phenyl-9H-purine-2,8-diamine derivatives, a new class of reversible kinase inhibitors targeting both EGFR-activating and resistance mutations” (J Med Chem, 2012)
Activity calls are given as the source filed them. The rule behind the calls is not given here.

What was measured:
[1] = Binding affinity to […] EGFR L747-S752del, Sins mutant by KINOMEscan kinase binding assay
[2] = Binding affinity to […] EGFR 747-E749del, A750P mutant by KINOMEscan kinase binding assay
HepG2 = experiment: Cytotoxicity against human HepG2 cells incubated for 72 hrs by MTT assay; assay type: functional, cell-based; details: HepG2, 72 h
NCI-H1975 [3] = experiment: Cytotoxicity against human NCI-H1975 cells incubated for 72 hrs by MTT assay; assay type: functional, cell-based; details: NCI-H1975, 72 h
[4] = Cytotoxicity against human HCC827 cells incubated for 72 hrs by MTT assay; assay type: functional, cell-based; details: HCC827, 72 h
[5] = target: Rho-associated protein kinase 2 (Homo sapiens, UniProt O75116); experiment: Inhibition of human recombinant ROCK2 by radiometric kinase assay
[6] = target: Macrophage-stimulating protein receptor (Homo sapiens, UniProt Q04912); experiment: Inhibition of human recombinant MST1R by radiometric kinase assay
[7] = target: Receptor tyrosine-protein kinase erbB-2 (Homo sapiens, UniProt P04626); experiment: Inhibition of human recombinant ERBB2 by radiometric kinase assay
NCI-H1975 [8] = experiment: Antitumor activity against human NCI-H1975 cells xenografted in BALB/c mouse assessed as inhibition of tumor growth at 25 mg/kg, po qd; assay type: functional; details: read-out: TGI
Rattus norvegicus = experiment: Volume of distribution at steady state in Sprague-Dawley rat at 20 mg/kg, po; assay type: ADME, organism-based; parameters: dose 20 mg/kg, route oral; details: in vivo
[9] = Half life in Sprague-Dawley rat at 20 mg/kg, po; assay type: ADME, organism-based; parameters: dose 20 mg/kg, route oral; details: in vivo
[10] = AUC (0 to 24 hrs) in Sprague-Dawley rat at 20 mg/kg, po; assay type: ADME, organism-based; parameters: time < 24 hr, dose 20 mg/kg, route oral; details: plasma
NCI-H1975 [11] = experiment: Antitumor activity against human NCI-H1975 cells xenografted in BALB/c mouse assessed as reduction in Ki67 expression at 50 mg/kg/day, po for 10 days by immunohistochemistry; assay type: functional, organism-based
HCC827 [12] = experiment: Antitumor activity against human HCC827 cells xenografted in BALB/c mouse assessed as reduction in Ki67 expression at 1 mg/kg/day, po for 3 days by immunohistochemistry; assay type: functional, organism-based
Mus musculus [13] = experiment: Inhibition of EGFR phosphorylation in human NCI-H1975 cells xenografted in BALB/c mouse at 50 mg/kg/day, po for 10 days by immunohistochemistry; assay type: functional, organism-based
Mus musculus [14] = experiment: Inhibition of EGFR phosphorylation in human HCC827 cells xenografted in BALB/c mouse at 1 mg/kg/day, po for 3 days by immunohistochemistry; assay type: functional, organism-based
Mus musculus [15] = experiment: Toxicity in human NCI-H1975 cells xenografted BALB/c mouse assessed as body weight loss at 50 mg/kg, po qd; assay type: organism-based; parameters: dose 50 mg/kg, route oral; details: in vivo
NCI-H1975 [16] = experiment: Antitumor activity against human NCI-H1975 cells xenografted in BALB/c mouse assessed as inhibition of tumor growth administered orally once daily; assay type: functional, cell-based
NCI-H1975 [17] = experiment: Antitumor activity against human NCI-H1975 cells xenografted in BALB/c mouse assessed as inhibition of tumor growth at 50 mg/kg, po qd; assay type: functional; details: read-out: TGI
HCC827 [18] = experiment: Antitumor activity against human HCC827 cells xenografted in BALB/c mouse assessed as reduction tumor volume at 20 mg/kg, po qd; assay type: functional, organism-based; parameters: dose 20 mg/kg
HCT-116 = experiment: Cytotoxicity against human HCT116 cells incubated for 72 hrs by MTT assay; assay type: functional, cell-based; details: HCT-116, 72 h
MDA-MB-231 = experiment: Cytotoxicity against human MDA-MB-231 cells incubated for 72 hrs by MTT assay; assay type: functional, cell-based; details: MDA-MB-231, 72 h
FaDu = experiment: Cytotoxicity against human FADU cells incubated for 72 hrs by MTT assay; assay type: functional, cell-based
Calu-3 = experiment: Cytotoxicity against human Calu3 cells incubated for 72 hrs by MTT assay; assay type: functional, cell-based; details: Calu-3, 72 h
NCI-H292 = experiment: Cytotoxicity against human NCI-H292 cells incubated for 72 hrs by MTT assay; assay type: functional, cell-based; details: NCI-H292, 72 h
PC-9 = experiment: Cytotoxicity against human PC9 cells incubated for 72 hrs by MTT assay; assay type: functional, cell-based; details: PC-9, 72 h
[19] = target: Mitogen-activated protein kinase 14 (Homo sapiens, UniProt Q16539); experiment: Inhibition of human recombinant p38alpha by radiometric kinase assay
[20] = target: Vascular endothelial growth factor receptor 2 (Homo sapiens, UniProt P35968); experiment: Inhibition of human recombinant VEGFR2 by radiometric kinase assay
[21] = Inhibition of human recombinant S6K by radiometric kinase assay
[22] = target: Non-receptor tyrosine-protein kinase TYK2 (Homo sapiens, UniProt P29597); experiment: Inhibition of human recombinant TYK2 by radiometric kinase assay
[23] = target: RAC-alpha serine/threonine-protein kinase (Homo sapiens, UniProt P31749); experiment: Inhibition of human recombinant PKBalpha by radiometric kinase assay
[24] = target: Protein kinase C alpha type (Homo sapiens, UniProt P17252); experiment: Inhibition of human recombinant PKCalpha by radiometric kinase assay
[25] = Inhibition of human recombinant PKA by radiometric kinase assay
[26] = target: MAP kinase-interacting serine/threonine-protein kinase 1 (Homo sapiens, UniProt Q9BUB5); experiment: Inhibition of human recombinant MNK1 by radiometric kinase assay
[27] = target: MAP kinase-activated protein kinase 2 (Homo sapiens, UniProt P49137); experiment: Inhibition of human recombinant MK2 by radiometric kinase assay
[28] = target: Tyrosine-protein kinase JAK3 (Homo sapiens, UniProt P52333); experiment: Inhibition of human recombinant JAK3 by radiometric kinase assay
[29] = target: Interleukin-1 receptor-associated kinase 4 (Homo sapiens, UniProt Q9NWZ3); experiment: Inhibition of human recombinant IRAK4 by radiometric kinase assay
[30] = target: Tyrosine-protein kinase JAK1 (Homo sapiens, UniProt P23458); experiment: Inhibition of human recombinant JAK1 by radiometric kinase assay
[31] = target: Glycogen synthase kinase-3 beta (Homo sapiens, UniProt P49841); experiment: Inhibition of human recombinant GSK3beta by radiometric kinase assay
[32] = Inhibition of human recombinant CaMK2 by radiometric kinase assay
[33] = Inhibition of human recombinant CK1 by radiometric kinase assay
[34] = target: Proto-oncogene tyrosine-protein kinase Src (Homo sapiens, UniProt P12931); experiment: Inhibition of human recombinant SRC by radiometric kinase assay
[35] = target: Hepatocyte growth factor receptor (Homo sapiens, UniProt P08581); experiment: Inhibition of human recombinant MET by radiometric kinase assay
[36] = target: Mast/stem cell growth factor receptor Kit (Homo sapiens, UniProt P10721); experiment: Inhibition of human recombinant KIT by radiometric kinase assay
[37] = target: Insulin-like growth factor 1 receptor (Homo sapiens, UniProt P08069); experiment: Inhibition of human recombinant IGF1R by radiometric kinase assay
[38] = target: Receptor tyrosine-protein kinase erbB-4 (Homo sapiens, UniProt Q15303); experiment: Inhibition of human recombinant ERBB4 by radiometric kinase assay
[39] = target: ALK tyrosine kinase receptor (Homo sapiens, UniProt Q9UM73); experiment: Inhibition of human recombinant ALK by radiometric kinase assay
Sequence of ALK tyrosine kinase receptor (Q9UM73 whole entry): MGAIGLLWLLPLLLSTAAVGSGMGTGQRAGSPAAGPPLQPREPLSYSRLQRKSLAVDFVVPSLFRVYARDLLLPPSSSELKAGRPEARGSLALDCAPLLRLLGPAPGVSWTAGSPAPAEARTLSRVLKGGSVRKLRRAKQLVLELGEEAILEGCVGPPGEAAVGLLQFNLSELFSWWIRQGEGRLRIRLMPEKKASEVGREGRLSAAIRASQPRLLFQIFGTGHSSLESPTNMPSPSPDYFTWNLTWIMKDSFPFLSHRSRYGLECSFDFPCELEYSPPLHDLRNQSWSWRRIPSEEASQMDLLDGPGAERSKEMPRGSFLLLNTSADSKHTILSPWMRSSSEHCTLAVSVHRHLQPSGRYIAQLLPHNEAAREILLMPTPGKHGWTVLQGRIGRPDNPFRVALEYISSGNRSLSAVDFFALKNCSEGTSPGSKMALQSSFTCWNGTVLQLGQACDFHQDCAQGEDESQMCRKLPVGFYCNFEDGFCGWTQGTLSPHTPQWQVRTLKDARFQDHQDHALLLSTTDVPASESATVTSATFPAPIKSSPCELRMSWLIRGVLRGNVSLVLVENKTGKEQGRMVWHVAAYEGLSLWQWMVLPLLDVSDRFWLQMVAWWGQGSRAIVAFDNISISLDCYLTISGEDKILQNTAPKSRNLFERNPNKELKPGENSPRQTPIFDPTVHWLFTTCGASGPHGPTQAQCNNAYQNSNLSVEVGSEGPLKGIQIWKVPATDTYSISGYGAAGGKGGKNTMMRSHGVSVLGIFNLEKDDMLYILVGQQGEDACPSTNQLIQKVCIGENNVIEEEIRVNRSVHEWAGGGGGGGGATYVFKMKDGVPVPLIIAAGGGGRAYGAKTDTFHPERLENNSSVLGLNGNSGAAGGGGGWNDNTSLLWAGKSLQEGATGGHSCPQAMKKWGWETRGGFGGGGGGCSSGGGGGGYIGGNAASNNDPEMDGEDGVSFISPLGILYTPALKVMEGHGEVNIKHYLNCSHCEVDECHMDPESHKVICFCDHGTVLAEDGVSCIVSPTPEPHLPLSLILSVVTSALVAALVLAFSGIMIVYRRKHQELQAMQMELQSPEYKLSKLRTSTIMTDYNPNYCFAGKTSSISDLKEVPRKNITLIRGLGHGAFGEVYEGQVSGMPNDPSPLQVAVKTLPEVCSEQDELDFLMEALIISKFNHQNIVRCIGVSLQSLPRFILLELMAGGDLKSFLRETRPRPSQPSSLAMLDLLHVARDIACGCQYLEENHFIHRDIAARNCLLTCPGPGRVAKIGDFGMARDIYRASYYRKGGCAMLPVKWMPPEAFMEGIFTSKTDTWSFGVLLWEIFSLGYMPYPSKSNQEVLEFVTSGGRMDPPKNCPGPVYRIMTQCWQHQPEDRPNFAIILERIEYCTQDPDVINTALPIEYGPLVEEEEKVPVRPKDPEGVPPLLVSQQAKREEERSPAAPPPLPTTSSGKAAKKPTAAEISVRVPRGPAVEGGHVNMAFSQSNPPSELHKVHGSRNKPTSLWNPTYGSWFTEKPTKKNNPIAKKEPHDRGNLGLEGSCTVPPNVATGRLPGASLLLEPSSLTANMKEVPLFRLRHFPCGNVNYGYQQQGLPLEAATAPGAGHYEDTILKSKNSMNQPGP

Sequence of Proto-oncogene tyrosine-protein kinase Src (P12931 2-536 limits assumed): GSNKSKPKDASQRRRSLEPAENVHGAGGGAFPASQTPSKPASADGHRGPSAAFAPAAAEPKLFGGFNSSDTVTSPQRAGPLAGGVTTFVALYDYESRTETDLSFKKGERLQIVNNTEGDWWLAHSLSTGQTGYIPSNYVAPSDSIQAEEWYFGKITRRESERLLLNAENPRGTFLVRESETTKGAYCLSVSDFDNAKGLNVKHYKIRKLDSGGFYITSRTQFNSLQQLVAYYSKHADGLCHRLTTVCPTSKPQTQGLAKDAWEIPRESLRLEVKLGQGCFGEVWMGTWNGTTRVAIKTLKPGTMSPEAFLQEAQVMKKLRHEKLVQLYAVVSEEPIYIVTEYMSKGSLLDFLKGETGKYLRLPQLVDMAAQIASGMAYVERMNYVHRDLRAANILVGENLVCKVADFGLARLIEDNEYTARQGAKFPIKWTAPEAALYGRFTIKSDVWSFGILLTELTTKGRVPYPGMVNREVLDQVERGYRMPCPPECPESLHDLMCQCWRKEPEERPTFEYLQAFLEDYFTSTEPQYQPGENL
Sequence of Interleukin-1 receptor-associated kinase 4 (Q9NWZ3 whole entry): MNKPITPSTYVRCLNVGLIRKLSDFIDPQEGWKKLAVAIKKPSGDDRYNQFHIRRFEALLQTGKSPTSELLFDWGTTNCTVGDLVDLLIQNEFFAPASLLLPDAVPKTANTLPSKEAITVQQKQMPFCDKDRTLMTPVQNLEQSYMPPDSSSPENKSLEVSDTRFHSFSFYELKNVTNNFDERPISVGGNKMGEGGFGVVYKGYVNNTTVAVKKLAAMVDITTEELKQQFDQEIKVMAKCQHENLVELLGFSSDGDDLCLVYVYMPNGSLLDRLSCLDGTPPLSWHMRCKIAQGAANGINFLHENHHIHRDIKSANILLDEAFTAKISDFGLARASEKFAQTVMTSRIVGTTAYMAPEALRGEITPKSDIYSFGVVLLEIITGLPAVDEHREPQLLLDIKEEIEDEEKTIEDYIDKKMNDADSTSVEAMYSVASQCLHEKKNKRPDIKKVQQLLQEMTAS
Sequence of Receptor tyrosine-protein kinase erbB-4 (Q15303 whole entry): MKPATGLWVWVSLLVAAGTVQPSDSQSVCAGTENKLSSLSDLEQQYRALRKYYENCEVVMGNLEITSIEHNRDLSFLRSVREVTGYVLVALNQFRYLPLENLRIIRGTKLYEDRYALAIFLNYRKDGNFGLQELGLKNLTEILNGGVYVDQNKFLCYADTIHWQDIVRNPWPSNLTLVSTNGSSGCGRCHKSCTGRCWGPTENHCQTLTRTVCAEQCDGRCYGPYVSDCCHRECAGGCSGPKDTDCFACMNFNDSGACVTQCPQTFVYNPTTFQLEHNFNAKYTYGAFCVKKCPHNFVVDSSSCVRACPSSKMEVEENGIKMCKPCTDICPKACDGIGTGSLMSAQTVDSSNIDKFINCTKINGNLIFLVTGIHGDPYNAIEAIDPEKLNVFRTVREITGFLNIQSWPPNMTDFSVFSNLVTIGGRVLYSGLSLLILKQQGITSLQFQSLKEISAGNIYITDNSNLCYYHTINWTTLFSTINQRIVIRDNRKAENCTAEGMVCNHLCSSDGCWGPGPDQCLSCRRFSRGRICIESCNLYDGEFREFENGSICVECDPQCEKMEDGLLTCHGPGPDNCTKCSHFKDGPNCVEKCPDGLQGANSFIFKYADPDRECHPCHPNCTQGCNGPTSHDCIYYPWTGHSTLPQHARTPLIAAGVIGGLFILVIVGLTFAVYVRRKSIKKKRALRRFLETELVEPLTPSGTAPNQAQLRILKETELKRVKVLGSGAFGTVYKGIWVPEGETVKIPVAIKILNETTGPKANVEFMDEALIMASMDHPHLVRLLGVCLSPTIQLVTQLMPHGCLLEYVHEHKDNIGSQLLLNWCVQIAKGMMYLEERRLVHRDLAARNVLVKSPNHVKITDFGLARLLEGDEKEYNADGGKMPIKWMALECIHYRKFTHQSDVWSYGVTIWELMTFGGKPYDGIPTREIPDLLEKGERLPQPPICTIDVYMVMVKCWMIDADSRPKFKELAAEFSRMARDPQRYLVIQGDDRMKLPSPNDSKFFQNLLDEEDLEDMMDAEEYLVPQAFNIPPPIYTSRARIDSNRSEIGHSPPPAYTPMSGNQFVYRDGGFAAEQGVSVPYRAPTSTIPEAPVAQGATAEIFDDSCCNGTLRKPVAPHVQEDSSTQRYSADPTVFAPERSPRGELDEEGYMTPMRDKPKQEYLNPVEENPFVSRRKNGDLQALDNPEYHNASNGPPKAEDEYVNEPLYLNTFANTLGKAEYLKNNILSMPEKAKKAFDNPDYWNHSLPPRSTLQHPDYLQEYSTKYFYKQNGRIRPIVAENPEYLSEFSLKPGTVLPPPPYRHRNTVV
Sequence of Mast/stem cell growth factor receptor Kit (P10721 whole entry): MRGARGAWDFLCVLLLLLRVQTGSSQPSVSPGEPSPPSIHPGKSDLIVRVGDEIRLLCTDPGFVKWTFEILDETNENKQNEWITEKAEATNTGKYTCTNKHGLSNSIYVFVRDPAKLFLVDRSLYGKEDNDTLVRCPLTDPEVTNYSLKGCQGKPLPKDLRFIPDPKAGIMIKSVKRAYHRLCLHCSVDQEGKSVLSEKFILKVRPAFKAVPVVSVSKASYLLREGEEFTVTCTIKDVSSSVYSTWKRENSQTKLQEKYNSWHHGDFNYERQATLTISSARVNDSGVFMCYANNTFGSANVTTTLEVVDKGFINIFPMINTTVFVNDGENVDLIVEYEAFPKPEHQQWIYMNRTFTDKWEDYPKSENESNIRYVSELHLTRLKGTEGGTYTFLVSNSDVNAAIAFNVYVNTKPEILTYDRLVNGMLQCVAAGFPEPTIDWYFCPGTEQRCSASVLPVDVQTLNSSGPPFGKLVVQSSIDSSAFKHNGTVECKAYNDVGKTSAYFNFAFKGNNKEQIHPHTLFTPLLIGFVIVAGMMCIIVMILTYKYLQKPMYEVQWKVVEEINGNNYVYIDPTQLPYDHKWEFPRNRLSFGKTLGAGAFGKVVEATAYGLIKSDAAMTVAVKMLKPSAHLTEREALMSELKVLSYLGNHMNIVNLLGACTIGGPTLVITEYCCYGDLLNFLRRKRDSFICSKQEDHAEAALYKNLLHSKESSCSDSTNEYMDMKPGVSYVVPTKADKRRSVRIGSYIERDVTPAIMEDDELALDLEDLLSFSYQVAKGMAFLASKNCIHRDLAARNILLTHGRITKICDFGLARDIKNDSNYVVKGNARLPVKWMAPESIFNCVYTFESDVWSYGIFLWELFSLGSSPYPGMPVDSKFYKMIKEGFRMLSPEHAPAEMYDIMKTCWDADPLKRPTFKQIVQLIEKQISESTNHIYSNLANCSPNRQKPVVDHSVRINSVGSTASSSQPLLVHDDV

Kd [1]: 0.0005 µM
Kd [2]: 0.0004 µM
IC50 [5]: > 10 µM
IC50 [6]: > 10 µM
IC50 [7]: 0.06 µM
Vdss (Rattus norvegicus): 63.35 L/kg
half-life [9]: 4.86 h
AUC(0-t) at 24 h [10]: 2140 ng·h/mL
IC50 [19]: 0.23 µM
IC50 [20]: 0.02 µM
IC50 [21]: 9.4 µM
IC50 [22]: 6.7 µM
IC50 [23]: > 10 µM
IC50 [24]: 6.7 µM
IC50 [25]: 1.1 µM
IC50 [26]: 6.7 µM
IC50 [27]: > 10 µM
IC50 [28]: 2.6 µM
IC50 [29]: > 10 µM
IC50 [30]: 3.3 µM
IC50 [31]: > 10 µM
IC50 [32]: > 10 µM
IC50 [33]: > 10 µM
IC50 [34]: 0.29 µM
IC50 [35]: 6.4 µM
IC50 [36]: 0.54 µM
IC50 [37]: > 10 µM
IC50 [38]: 0.03 µM
IC50 [39]: 2.3 µM
Structure (SMILES): CN1CCN(c2ccc(Nc3ncc4nc(Nc5ccccc5)n(C5CCCC5)c4n3)cc2)CC1
IC50 (HepG2): > 5 µM
IC50 (NCI-H1975 [3]): 0.36 µM
IC50 [4]: < 10 pM
inhibition in vivo at 25 mg/kg (NCI-H1975 [8]): 35%
Activity (NCI-H1975 [11]): Active
Activity (HCC827 [12]): Active
inhibition (Mus musculus [13]): Active
inhibition (Mus musculus [14]): Active
Activity (Mus musculus [15]): 4.4%
TGI (NCI-H1975 [16]): Dose-dependent effect
inhibition in vivo at 50 mg/kg (NCI-H1975 [17]): 62%
TGI (HCC827 [18]): Active
IC50 (HCT-116): 3 µM
IC50 (MDA-MB-231): 5 µM
IC50 (FaDu): 0.015 µM
IC50 (Calu-3): 0.12 µM
IC50 (NCI-H292): 0.045 µM
IC50 (PC-9): 0.00022 µM
